{"source": "patent US20100280975A1", "about": "“SYSTEMS FOR CLINICAL TRIALS” (WisTa Laboratories Ltd., priority 2007, published 2010)", "key": {"[1]": {"assay": "Adverse effects in the rember™ trial", "format": "in vivo, human", "method": "Thus subjects in the Least Exposed Dose arm (ie subjects switched to the low (100 mg) dose after 6 months) who continued to decline withdrew from the study largely after 24 weeks. […] However, biased withdrawal was not a factor in CDR-mild subjects in the same low (100 mg) comparator treatment arm. Therefore the primary driver of non-random withdrawal in the rember™ trial was the experience of continuing rapid decline which was most apparent in the CDR-moderate group."}, "[2]": {"system": "mild and moderate dementia of the Alzheimer type", "assay": "Mild-brought-forward confirmatory analysis of ADAS-cog over 25 weeks", "format": "in vivo, human", "settings": "for Mild-brought-forward CDR-mild effect size over 25 weeks / Mild-brought-forward CDR-moderate effect size over 25 weeks / Mild-brought-forward confirmatory analysis, overall effect size over 25 weeks: vs placebo/placebo-low; for Mild-brought-forward confirmatory analysis, overall change from baseline over 25 weeks: whole population, mixed-effects model"}, "[3]": {"system": "mild and moderate dementia of the Alzheimer type", "assay": "rember™ Phase 2 study: ADAS-cog change over 24 weeks", "settings": "for Estimate, ADAS-cog change vs placebo, LM (ANCOVA) analysis / Estimate, change in ADAS-cog score vs intercept, least squares / Estimate, change in ADAS-cog score vs intercept, mixed effects / Estimate, change in ADAS-cog score vs intercept (placebo), linear least squares / Estimate, change in ADAS-cog score vs intercept (placebo), linear mixed effects: ITT/LOCF"}, "[4]": {"settings": "with interaction term, week 24, CDR-mild, 30 mg tid"}, "[5]": {"settings": "with interaction term, week 24, CDR-mild, 60 mg tid"}, "[6]": {"settings": "with interaction term, week 24, CDR-mild, low (100 mg) tid"}, "[7]": {"settings": "with interaction term, week 24, CDR-moderate, 30 mg tid"}, "[8]": {"settings": "with interaction term, week 24, CDR-moderate, 60 mg tid"}, "[9]": {"settings": "with interaction term, week 24, CDR-moderate, low (100 mg) tid"}, "[10]": {"settings": "without interaction term, week 24, 30 mg tid"}, "[11]": {"settings": "without interaction term, week 24, 60 mg tid"}}, "data": [{"smiles": "CN(C)c1ccc2nc3ccc(=[N+](C)C)cc-3sc2c1", "note": "[rember™, methylthioninium chloride]", "values": [{"measurement": "adverse effects", "setting": "[1]; low (100 mg) bd, second 6-months of the study", "value": "adverse effects, most notably diarrhea"}, {"measurement": "haematological side effects", "setting": "[1]; tid vs. bd dosing regimes", "value": "showed a clear dose-response profile"}, {"measurement": "Mild-brought-forward CDR-mild change over 25 weeks", "setting": "[2]; 30 mg", "value": 3.07, "unit": "ADAS-cog units"}, {"measurement": "Mild-brought-forward CDR-mild change over 25 weeks", "setting": "[2]; 60 mg", "value": 1.07, "unit": "ADAS-cog units"}, {"measurement": "Mild-brought-forward CDR-mild change over 25 weeks", "setting": "[2]; low (100 mg)", "value": 3.60, "unit": "ADAS-cog units"}, {"measurement": "Mild-brought-forward CDR-mild effect size over 25 weeks", "setting": "[2]; 30 mg", "value": "−1.19", "unit": "ADAS-cog units"}, {"measurement": "Mild-brought-forward CDR-mild effect size over 25 weeks", "setting": "[2]; 60 mg", "value": "−3.19", "unit": "ADAS-cog units"}, {"measurement": "Mild-brought-forward CDR-mild effect size over 25 weeks", "setting": "[2]; low (100 mg)", "value": "−0.66", "unit": "ADAS-cog units"}, {"measurement": "Mild-brought-forward CDR-moderate change over 25 weeks", "setting": "[2]; 60 mg", "value": 0.30, "unit": "ADAS-cog units"}, {"measurement": "Mild-brought-forward CDR-moderate change over 25 weeks", "setting": "[2]; low (100 mg)", "value": 4.82, "unit": "ADAS-cog units"}, {"measurement": "Mild-brought-forward CDR-moderate effect size over 25 weeks", "setting": "[2]; 30 mg", "value": 4.33, "unit": "ADAS-cog units"}, {"measurement": "Mild-brought-forward CDR-moderate effect size over 25 weeks", "setting": "[2]; 60 mg", "value": "−5.67", "unit": "ADAS-cog units"}, {"measurement": "Mild-brought-forward CDR-moderate effect size over 25 weeks", "setting": "[2]; low (100 mg)", "value": "−0.54", "unit": "ADAS-cog units"}, {"measurement": "Mild-brought-forward confirmatory analysis, overall effect size over 25 weeks", "setting": "[2]; 30 mg", "value": "−2.39", "unit": "ADAS-cog units"}, {"measurement": "Mild-brought-forward confirmatory analysis, overall effect size over 25 weeks", "setting": "[2]; 60 mg", "value": "−3.85", "unit": "ADAS-cog units"}, {"measurement": "Mild-brought-forward confirmatory analysis, overall effect size over 25 weeks", "setting": "[2]; low (100 mg)", "value": "−0.84", "unit": "ADAS-cog units"}, {"measurement": "Mild-brought-forward confirmatory analysis, overall change from baseline over 25 weeks", "setting": "[2]; 30 mg", "value": 2.26, "unit": "ADAS-cog units"}, {"measurement": "Mild-brought-forward confirmatory analysis, overall change from baseline over 25 weeks", "setting": "[2]; 60 mg", "value": 0.78, "unit": "ADAS-cog units"}, {"measurement": "Mild-brought-forward confirmatory analysis, overall change from baseline over 25 weeks", "setting": "[2]; low (100 mg)", "value": 3.81, "unit": "ADAS-cog units"}, {"measurement": "effect size in the entire ITT population of mild and moderate AD", "setting": "[3]; 60 mg tid, OC and LOCF analyses, 24 weeks, pooled CDR-mild and CDR-moderate", "value": "−1.0 to −1.2", "unit": "ADAS-cog units"}, {"measurement": "Estimate, ADAS-cog change vs placebo, LM (ANCOVA) analysis", "setting": "[3]; with interaction term, 24-week time-point, CDR-mild, 60 mg tid", "value": "−0.20", "unit": "ADAS-cog units"}, {"measurement": "Estimate, ADAS-cog change vs placebo, LM (ANCOVA) analysis", "setting": "[3]; with interaction term, 24-week time-point, CDR-mild, low (100 mg) tid", "value": "−0.79", "unit": "ADAS-cog units"}, {"measurement": "Estimate, ADAS-cog change vs placebo, LM (ANCOVA) analysis", "setting": "[3]; with interaction term, 24-week time-point, CDR-moderate, 30 mg tid", "value": "−3.00", "unit": "ADAS-cog units"}, {"measurement": "Estimate, ADAS-cog change vs placebo, LM (ANCOVA) analysis", "setting": "[3]; with interaction term, 24-week time-point, CDR-moderate, low (100 mg) tid", "value": "−0.40", "unit": "ADAS-cog units"}, {"measurement": "Estimate, change in ADAS-cog score vs intercept, least squares", "setting": "[3]; [4]", "value": 0.46, "unit": "ADAS-cog units"}, {"measurement": "Estimate, change in ADAS-cog score vs intercept, mixed effects", "setting": "[3]; [4]", "value": 0.46, "unit": "ADAS-cog units"}, {"measurement": "Estimate, change in ADAS-cog score vs intercept, least squares", "setting": "[3]; [5]", "value": "−0.73", "unit": "ADAS-cog units"}, {"measurement": "Estimate, change in ADAS-cog score vs intercept, mixed effects", "setting": "[3]; [5]", "value": "−0.73", "unit": "ADAS-cog units"}, {"measurement": "Estimate, change in ADAS-cog score vs intercept, least squares", "setting": "[3]; [6]", "value": "−0.18", "unit": "ADAS-cog units"}, {"measurement": "Estimate, change in ADAS-cog score vs intercept, mixed effects", "setting": "[3]; [6]", "value": "−0.18", "unit": "ADAS-cog units"}, {"measurement": "Estimate, change in ADAS-cog score vs intercept, least squares", "setting": "[3]; [7]", "value": "−1.05", "unit": "ADAS-cog units"}, {"measurement": "Estimate, change in ADAS-cog score vs intercept, mixed effects", "setting": "[3]; [7]", "value": "−1.05", "unit": "ADAS-cog units"}, {"measurement": "Estimate, change in ADAS-cog score vs intercept, least squares", "setting": "[3]; [8]", "value": "−3.70", "unit": "ADAS-cog units"}, {"measurement": "Estimate, change in ADAS-cog score vs intercept, mixed effects", "setting": "[3]; [8]", "value": "−3.70", "unit": "ADAS-cog units"}, {"measurement": "Estimate, change in ADAS-cog score vs intercept, least squares", "setting": "[3]; [9]", "value": 1.06, "unit": "ADAS-cog units"}, {"measurement": "Estimate, change in ADAS-cog score vs intercept, mixed effects", "setting": "[3]; [9]", "value": 1.06, "unit": "ADAS-cog units"}, {"measurement": "Estimate, ADAS-cog change vs placebo, LM (ANCOVA) analysis", "setting": "[3]; without interaction term, 24-week assessment data only, 30 mg tid", "value": "−0.04", "unit": "ADAS-cog units"}, {"measurement": "Estimate, ADAS-cog change vs placebo, LM (ANCOVA) analysis", "setting": "[3]; without interaction term, 24-week assessment data only, low (100 mg) tid", "value": "−0.78", "unit": "ADAS-cog units"}, {"measurement": "Estimate, change in ADAS-cog score vs intercept (placebo), linear least squares", "setting": "[3]; [10]", "value": 0.04, "unit": "ADAS-cog units"}, {"measurement": "Estimate, change in ADAS-cog score vs intercept (placebo), linear mixed effects", "setting": "[3]; [10]", "value": 0.04, "unit": "ADAS-cog units"}, {"measurement": "Estimate, change in ADAS-cog score vs intercept (placebo), linear least squares", "setting": "[3]; [11]", "value": "−1.18", "unit": "ADAS-cog units"}, {"measurement": "Estimate, change in ADAS-cog score vs intercept (placebo), linear mixed effects", "setting": "[3]; [11]", "value": "−1.18", "unit": "ADAS-cog units"}]}]}
